Measurements taken from US20040049807A1, “Fatty acid desaturase gene and protein for modulating activation of defense signaling pathways in plants” (priority 2003, published 2004).

Columns and labels:
[1] = test system: PR-1, BGL2 and PR-5 gene transcripts; experiment: PR gene expression after chemical treatment of plants (northern blot); assay type: in vivo, Arabidopsis
Description: Chemical treatment of plants. Four-week-old plants were sprayed and sub-irrigated with a solution of SA […] or BTH […] in water as previously described (Shah et al. 1997). As controls, plants were similarly treated with water. Leaves were harvested at the indicated times after treatment and quick-frozen in liquid nitrogen. Leaf samples were stored at −80° C.
RNA extraction, northern and dot blot analyses. Large-scale preparation of RNA from Arabidopsis was carried out Small-scale extraction of RNA from one or two leaves was performed in the TRIzol reagent (GIBCO-BRL, Gaithersburg, Md.) following manufacturer's instructions. Northern blot analysis and synthesis of random primed probes for PR-i, BGL2 and PR-5 were synthesized as described earlier (Shah et al. 1997).

[2] = test system: root growth; experiment: inhibition of root growth; assay type: in vivo, Arabidopsis; conditions: ssi2 plants
[3] = test system: B. cinerea; experiment: disease resistance to B. cinerea; assay type: in vivo, Arabidopsis; conditions: exogenously applied, ssi2 or ssi2 nahG plants
Description: FIG. 9. Analysis of disease resistance to B. cinerea. Infections with B. cinerea were carried out by wounding the leaves by needle pricks and subsequently spot inoculating spores at the wounded site. The number of pricks made per leaf were based on the leaf size and ranged from three per leaf for SSI2 (Nö) to one per leaf for the ssi2 mutant. Plants were treated with either water or 50 μM JA for 48 h prior to and throughout the infection and the inoculated leaves were photographed at 10 dpi.

[4] = test system: PDF1.2; experiment: PDF1.2 gene expression (northern blot); assay type: in vivo, Arabidopsis
Description: FIG. 8. Expression of the SSI2 gene. (FIG. 8A) Histochemical staining of GUS activity in the leaves and inflorescence of transgenic plants expressing an SSI2::: GUS reporter gene. […] The control is a stained leaf from a wt plant. (FIG. 8B) Northern blot analysis of SSI2 (Nö), npr1-5, jar1-1 and ssi2 plants treated with water or 50 μM JA. RNA was extracted at 48 hour (h) post treatment and the blot was sequentially probed with SSI2, PDF1.2, and THI2.1. Ethidium bromide-stained rRNA served as a control for gel loading. (FIG. 8C) Northern blot analysis of plants inoculated with spores of Alternaria brassicicola. Mock (M) or fungal (A) inoculations were carried out as described previously (12). RNA was extracted at 72 h post inoculation and PDF1.2 gene expression was monitored. (FIG. 8D) Northern blot analysis of SSI2, npr1-5, jar1-1, NahG, etr1-1 and ssi2 plants treated with methanol or 50 μM MeJA. The plants were placed around a beaker containing methanol or MeJA diluted in methanol and covered with plastic wrap. RNA was prepared from leaves harvested at 48 h post treatment and analyzed for PDF1.2 gene expression.
FIG. 10. […] Oleic acid (18:1; 0.5 mM, Sigma) or water was injected into the leaves of SSI2 (Nö), ssi2 or ssi2 nahG plants followed by treatment with 50 μM JA or water. Eight to ten individual plants each of SSI2, ssi2 or ssi2 nahG were analyzed in two independent experiments. RNA was extracted at 48 h post treatment and PDF1.2 gene expression was monitored by northern blot analysis. Ethidium bromide-stained rRNA served as a control for gel loading.
RNA extraction and northern analyses. Small-scale extraction of RNA from one or two leaves was performed in the TRIzol reagent (GIBCO-BRL, Gaithersburg, Md.) following the manufacturer's instructions. Northern blot analysis and synthesis of random primed probes for PR-1, BGL2 and PR-5, PDF1.2 and THI2.1 were synthesized.

[5] = test system: THI2.1; experiment: THI2.1 gene expression (northern blot); assay type: in vivo, Arabidopsis; conditions: ssi2 plants
Description: FIG. 8. Expression of the SSI2 gene. (FIG. 8A) Histochemical staining of GUS activity in the leaves and inflorescence of transgenic plants expressing an SSI2::: GUS reporter gene. A 1631 bp fragment containing the SSI2 promoter was transcriptionally fused upstream of GUS in pBI121 and three independent transgenic lines were analyzed in both T1 and T2 generations. The control is a stained leaf from a wt plant. (FIG. 8B) Northern blot analysis of SSI2 (Nö), npr1-5, jar1-1 and ssi2 plants treated with water or 50 μM JA. RNA was extracted at 48 hour (h) post treatment and the blot was sequentially probed with SSI2, PDF1.2, and THI2.1. Ethidium bromide-stained rRNA served as a control for gel loading. (FIG. 8C) Northern blot analysis of plants inoculated with spores of Alternaria brassicicola. Mock (M) or fungal (A) inoculations were carried out as described previously (12). RNA was extracted at 72 h post inoculation and PDF1.2 gene expression was monitored. (FIG. 8D) Northern blot analysis of SSI2, npr1-5, jar1-1, NahG, etr1-1 and ssi2 plants treated with methanol or 50 μM MeJA. The plants were placed around a beaker containing methanol or MeJA diluted in methanol and covered with plastic wrap. RNA was prepared from leaves harvested at 48 h post treatment and analyzed for PDF1.2 gene expression.
RNA extraction and northern analyses. […]

[6] = test system: SSI2 gene expression; experiment: SSI2 gene expression after treatment (northern analysis); assay type: in vivo, Arabidopsis; conditions: 12, 24 or 48 hours after treating plants
[7] = in vitro S-ACP desaturase assay

For `CCCCCCCCCCCCCCCCCC(=O)O` [18:0, stearic acid], which PR-1 gene expression ([1]; exogenous application, wt plants) is on record?
Its PR-1 gene expression is “does not induce”.

Which results are given for `c1ccc2snnc2c1` [BTH, benzothiadiazole]?
accumulation of PR-1 transcript ([1]; ssi2 NPR1 nahG plants): increased; PR-1 expression ([1]; ssi2 npr1-5 nahG plants): not

What does the source list for `CC/C=C\C[C@H]1C(=O)CC[C@@H]1CC(=O)O` [JA, jasmonic acid]?
inhibition of root growth [2]: unaffected; B. cinerea resistance [3]: failed to restore; PDF1.2 expression ([4]; ssi2 NPR1, ssi2 npr1-5 or jar1-1 plants, 50 μM, 48 h): induced only low to undetectable levels; PDF1.2 expression ([4]; wt and npr1-5 plants, 50 μM, 48 h): activated PDF1.2 expression effectively; induced activation of the THI2.1 gene [5]: unaffected; SSI2 gene expression [6]: did not increase substantially over basal levels

For `CC/C=C\CC1C(=O)CCC1CC(=O)OC` (stereo not drawn) [MeJA, methyl JA], which “inhibition of root growth” value [2] is on record?
The value was “unaffected”.

And the B. cinerea resistance [3]?
The B. cinerea resistance was “failed to restore”.

Which “accumulation of the PR gene transcripts” value ([1]; exogenous application, ssi2 npr1-5 plant) does the source give for `O=C(O)c1ccccc1O` [SA, salicylic acid] here?
The value was “did not further increase”.

What about the SSI2 gene expression [6] of the same molecule?
The SSI2 gene expression was “did not increase substantially over basal levels”.

What does the source list for `C=C` [ethylene]?
PDF1.2 expression ([4]; 10 or 20 parts per million, ssi2 plants): not; PDF1.2 expression ([4]; 10 or 20 parts per million, wt plants): induced PDF1.2 expression; SSI2 gene expression [6]: did not increase substantially over basal levels

Which results are given for “mutant protein: ssi2 mutant S-ACP desaturase with leucine 146 changed to phenylalanine, bacterial-expressed (LRERARELPDDYFVVLVGDMITEEAFPTYQTMLNTLDGVRDETGASPTSWAIWTRAWTAE; (26)..(26) Phe residue instead of Leu present at position corresponding to residue 146 of wild type.; listed as Arabidopsis thaliana)”?
fold less active than wt ([7]; 16:0 substrate): ~20 fold; fold less active than wt ([7]; 18:0 substrate): approximately 10 fold; 18:16 substrate preference ratio and Δ^9 regiospecificity ([7]; in contrast to the wt): unaltered; activity lower than that of the wt enzyme ([7]; overall summary): 10-20 fold

B1: Wt SSI2: wild-type Arabidopsis SSI2 stearoyl-ACP desaturase (SEQ ID NO:3), expressed in Escherichia coli and purified (protein, listed as Arabidopsis thaliana)
chain: MALKFNPLVASQPYKFPSSTRPPTPSFRSPKFLCLASSSPALSSGPKEVESLKKPFTPPREVHVQVLHSMPPQKIEIFKSMENWAEENLLIHLKDVEKSWQPQDFLPDPASDGFEDQVRELRERARELPDDYFVVLVGDMITEEALPTYQTMLNTLDGVRDETGASPTSWAIWTRAWTAEENRHGDLLNKYLYLSGRVDMRQIEKTIQYLIGSGMDPRTENNPYLGFIYTSFQERATFISHGNTARQAKEHGDIKLAQICGTIAADEKRHETAYTKIVEKLFEIDPDGTVMAFADMMRKKISMPAHLMYDGRNDNLFDNFSSVAQRLGVYTAKDYADILEFLVGRWKIQDLTGLSGEGNKAQDYLCGLAPRIKRLDERAQARAKKGPKIPFSWIHDREVQL
Which specific activity ([7]; purified enzyme expressed in Escherichia coli) does the source give for B1 here?
The specific activity was ~800 nm/min/mg.
